Patent US20160194336A1, “P38 MAPK INHIBITORS FOR THE TREATMENT OF INFLAMMATORY DISEASES” (ALLINKY BIOPHARMA, priority 2012, published 2016)

Assays:
p38alpha = target: T1, p38alpha (Homo sapiens, UniProt Q16539); assay: p38 cascade kinase reaction (inactive p38alpha, MKK6, ATF2, ADP-Glo); assay type: biochemical; details: read-out: inhibition p38a/ATF-2 (p38 cascade)
T1 construct: purchased Invitrogen PV3305
Protocol: Purified recombinant activated p38alpha (10 nM)(ProQinase) was preincubated 10 minutes at 30° C. with the compound of interest at concentrations between 1 and 100 µM in duplicate in a final volume of 30 ul of kinase buffer (Hepes 60 mM pH 7.5, MgCl2 3 mM, MnCl2 3 mM, Sodium Orthovanadate 3 μM, DTT 1.2 mM). After preincubation, peptide substrate (SignalChem #P03-58) and ATP were added to a final concentration of 10 μM and 100 μM respectively, and then incubated 40 minutes at 30° C. for the kinase reaction. Phosphorylation was analyzed with ADP-GloM (Promega #V9101) and emitted luminescence was measured with BMG Fluostar microplate reader.
(§1) After preincubation, MKK6 (ProQinase), ATF2 (ProQinase) and ATP were added to a final concentration of 10 nM, 5 μM and 10 μM respectively, then incubated 40 minutes at 30° C. and analyzed with ADP-Glo™.

[1] = tested on: Fibroblast-like synoviocytes (FLS) from patients with rheumatoid arthritis; assay: inflammatory mediators (IL6, IL8, MCP-1) by ELISA in FLS stimulated with TNF-alpha; assay type: cell-based, human; details: synoviocytes, TNFa + compound 100 uM
Protocol: Fibroblast-like synoviocytes (FLS) from patients with rheumatoid arthritis (RA) were obtained at the time of synovectomy or joint replacement. All RA patients fulfilled the American College of Rheumatology […] criteria for the diagnosis of RA (Arnett FC y cols. 1988 Arthritis Rheum 31(3):315-24).
Synovial tissue was minced and incubated with 10 μg/ml collagenase in serum-free Dulbecco modified Eagle medium (DMEM; Gibco Invitrogen, Barcelona, Spain) for 3 h at 37° C. After digestion, FLS were filtered through a nylon cell strainer (BD Falcon, Franklin Lakes, USA), washed extensively, and cultured in DMEM supplemented with 10% v/v fetal calf serum, 1% penicillin-streptomycin, and 1% L-glutamine (all reagents from PAA, Laboratories GmbH) in a humidified 5% C02 atmosphere. Adherent cells at 80-90% confluence were trypsinised and diluted at a split ratio of 1:3. FLS from 4 patients and between passages 3 to 8 were used for all experiments.
Enzyme-Linked Immunosorbent Assay (ELISA): RA FLS (1×10^4 cells/well) were cultured in DMEM 1% FCS in 96 well plates and treated with p-p38 inhibitors for 1 h. After, they were stimulated with TNF-α (10 ng/ml, Sigma Aldrich) and both treatments were present in the culture throughout the experiment. The supernatants were harvested at 18 h after treatment and assayed for IL6, IL8/CXCL8 and monocyte chemoattractant protein (MCP)-1/CCL2 by ELISA according to the manufacturer's instructions (BD Bioscience, San Jose, Calif., USA).

p38αR189A = target: T2, p38αR189A (Homo sapiens, UniProt Q16539, R189A); assay: site-mutated p38 phosphorylation cascade assay, R189A mutant; assay type: biochemical; details: compound 10 uM
T2 construct: made in house; host or cells: E. coli XL10-Gold
Protocol: as §1
(§2) Replacement of specific residues arginine 186 and 189 of p38α (pGEX4T-1-p38α) for alanine was performed with the QuikChange Lightining Site-Directed Mutagenesis Kit (Agilent Technologies). The following oligonucleotides were used for the arginine 186 to alanine substitution: forward primer: 5′-SEQ ID NO 7-3′; reverse primer: 5′-SEQ ID NO 8-3′. Oligonucleotides used for the arginine 189 to alanine substitution were: forward primer: 5′-SEQ ID NO 9-3′; reverse primer: 5′-SEQ ID NO 10-3′. Mutations were validated by sequencing (Genomic Unit, Parque Cientifico de Madrid). E. coli XL10-Gold ultracompentent cells (Agilent Technologies) were transformed with the vector plasmids containing p38αWT and mutants. For the expression of recombinant p38α transformed cells were cultured overnight at 37° C. in 50 ml of fresh LB medium containing ampicillin (100 μg/ml). After that, culture was diluted in fresh LB to A595=0.4 and grown for approximately 1 h at 37° C. until exponential growth and then induced with Isopropyl-β-D-thiogalactopyranoside (IPTG) 1 mM for 5 h. The cells were collected by centrifugation and cell pellet were resuspended in 50 ml of cold lysis buffer: PBS pH 7.4, EDTA 10 mM, PMSF 1 mM, Benzamidine 0.2 mM, DTT 5 mM, Triton X-100 1% and Lysozyme 1 mg/ml. The soluble and insoluble fractions were separated by centrifugation (16,000 g for 20 min). The soluble fraction was incubated for 2 hours with 1 ml of pre-equilibrated Glutathione Sepharose 4B (GE Healthcare) and the resin was extensively washed in a column with 200 ml of binding buffer: PBS, PMSF 1 mM and benzamidine 0.2 mM. Proteins were eluted with 1 ml of Tris-HCl 50 mM pH 8.0 and reduced glutathione 20 mM. 20% glycerol was added to purified proteins and stored at −80° C. Protein concentration and purity was assessed by SDS-PAGE. Kinase activity was measured by ADP-glo kit using MKK6 as activator and ATF2 as substrate. Activity recorded for p38αR186A and p38αR189A were 15.5% and 4.8%, respectively (n=4) related to wild type protein.

[2] = tested on: TNF-α secretion, THP-1 cells; assay: Inhibition of TNF-α secretion by LPS-stimulated THP-1; assay type: cell-based; details: Homo sapiens, THP-1, 3 h, monocytes with LPS, read-out: TNF abetment
Protocol: Inhibition of TNF-α Secretion by a Human Monocytic Cell Line, THP-1.
THP-1 cells, growing in log phase, were collected by centrifugation and resuspended in RPMI 1640 (Sigma Aldrich), to a final cell concentration of 2×10^6 cells/ml. Cells were plated into 24-well plates (BD Biosciences). Dilutions of compounds in dimethyl sulfoxide (DMSO) were added to the culture to a final concentration M. The final DMSO concentration was 0.5%. The cells […] suspensions were preincubated with compounds for 1 h at 37° C. in a 5% C02 humidified atmosphere before the addition of LPS (Sigma Aldrich, L2654) to a final concentration of 2 μg/ml. After that, cells were incubated for 3 h followed by centrifugation to pellet cells. Cell supernatants were stored at 4° C. until Human analysis for TNF-α content. TNF-α levels were determined by ELISA (TNF Biotrak, GE Healthcare) following the manufacturer's directions. The percentage inhibition was calculated for each compound concentration tested, and the IC50 was calculated for each compound.

THP-1 cells = assay: survival of monocytes with LPS; assay type: cell-based, human
p38alpha wt = target: T3, p38alpha wt (Homo sapiens, UniProt Q16539); assay: site-mutated p38 phosphorylation cascade assay, wild type; assay type: biochemical; details: compound 10 uM
T3 construct: made in house; host or cells: E. coli XL10-Gold
Protocol: as §1, §2

p38αR186A = target: T4, p38αR186A (Homo sapiens, UniProt Q16539, R186A); assay: site-mutated p38 phosphorylation cascade assay, R186A mutant; assay type: biochemical; details: compound 10 uM
T4 construct: made in house; host or cells: E. coli XL10-Gold
Protocol: as §1, §2

[3] = target: ATF2 (ProQinase) (Homo sapiens (Human)) (UniProt P15336)

T4 sequence (Q16539 whole entry R186A): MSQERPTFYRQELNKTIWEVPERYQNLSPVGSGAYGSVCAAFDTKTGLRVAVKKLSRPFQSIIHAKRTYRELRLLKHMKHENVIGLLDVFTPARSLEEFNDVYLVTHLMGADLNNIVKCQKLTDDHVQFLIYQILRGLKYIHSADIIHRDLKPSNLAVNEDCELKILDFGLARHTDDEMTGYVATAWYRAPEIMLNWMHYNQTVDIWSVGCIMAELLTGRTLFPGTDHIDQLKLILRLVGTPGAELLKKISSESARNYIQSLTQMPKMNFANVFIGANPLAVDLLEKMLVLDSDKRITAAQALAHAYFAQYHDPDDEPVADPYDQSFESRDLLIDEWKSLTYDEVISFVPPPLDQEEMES
T1 sequence (Q16539 whole entry): as the sequence (Q16539 whole entry R186A) above, with A186R counted along it
T3 sequence (Q16539 whole entry): as the sequence (Q16539 whole entry R186A) above, with A186R counted along it
T2 sequence (Q16539 whole entry R189A): as the sequence (Q16539 whole entry R186A) above, with A186R, R189A counted along it

Which inhibition at 100 µM (p38alpha; compound 100 μM) does the source give for `OCCOc1nc(OCCO)nc(OCCO)n1` [Compound 8] here?
Its inhibition at 100 µM is 20%.

What about the “% of inflammatory mediators production in the presence of compounds, IL6” value [1] of the same compound?
Its value is 66.5%.

And the “% of inflammatory mediators production in the presence of compounds, IL8” value [1]?
Its value is 83.4%.

And the “% of inflammatory mediators production in the presence of compounds, MCP-1” value [1]?
The value was 75.4%.

Which inhibition at 10 µM (p38alpha; compound 10 μM) does the source give for `O=S(=O)(c1cnccc1N1CCN(CCO)CC1)N1CCOCC1` [Compound 11] here?
Its inhibition at 10 µM is 1%.

What does the source list for `CCOC(=O)N1CCN(C2=Nc3nnnn3C3CC4CN(Cc5ccccc5)CCC4C23)CC1` (centres unmarked) [Compound 32]?
inhibition at 10 µM (p38αR189A): 9%; % of inflammatory mediators production in the presence of compounds, IL6 [1]: 52.4%; % of inflammatory mediators production in the presence of compounds, IL8 [1]: 34.8%; % of inflammatory mediators production in the presence of compounds, MCP-1 [1]: 22.7%; inhibition at 10 µM [2]: 21%; Cell survival (THP-1 cells; 10 uM): 99%; inhibition at 10 µM (p38alpha wt): 23%; inhibition at 10 µM (p38αR186A): 17%

Which results are given for `CCOC(=O)c1ccc(Nc2nc3nonc3nc2N2CCC(Oc3ccncc3)CC2)cc1` [Compound 33]?
inhibition at 10 µM (p38αR189A): 19%; inhibition at 0.1 µM ([2]; 0.1 uM): 21%; inhibition at 1 µM ([2]; 1 uM): 46%; inhibition at 10 µM [2]: 62%; Cell survival (THP-1 cells; 0.1 uM): 100%; Cell survival (THP-1 cells; 1 uM): 99%; Cell survival (THP-1 cells; 10 uM): 97%; inhibition at 10 µM (p38alpha wt): 47%; inhibition at 10 µM (p38αR186A): 23%

How did the kinase activity of the cascade MKK6/p38α/ATF2 (ADP-glo kit) (% related to wild type protein) (p38αR189A (Homo sapiens)) turn out when “MKK6 (ProQinase) (from UniProt P52564) (enzyme)” was run?
The kinase activity of the cascade MKK6/p38α/ATF2 (ADP-glo kit) (% related to wild type protein) was 4.8.

And the kinase activity of the cascade MKK6/p38α/ATF2 (ADP-glo kit) (% related to wild type protein) (p38αR186A (Homo sapiens))?
The kinase activity of the cascade MKK6/p38α/ATF2 (ADP-glo kit) (% related to wild type protein) was 15.5.

For p38αR186A (enzyme), which kinase activity (ADP-glo kit) (% related to wild type protein) [3] is on record?
The kinase activity (ADP-glo kit) (% related to wild type protein) was 15.5.

With p38αR189A (enzyme) as the compound, how does the kinase activity (ADP-glo kit) (% related to wild type protein) [3] read?
Its kinase activity (ADP-glo kit) (% related to wild type protein) is 4.8.
